Experimental findings from patent US4226775A, “Substituted thio-substituted benzyl-propionyl-L-prolines” (American Cyanamid Company, priority 1979, dated 1980) are described below.

The target in this experiment is T1, angiotensin converting enzyme (ACE) (Oryctolagus cuniculus, UniProt P12822).
T1 construct: The ACE was extracted from rabbit lung acetane powder (Pel-Freez, Biol. Inc.); tissue Pel-Freez, Biol. Inc; host or cells: rabbit lung acetone powder, crude extract (40,000 g supernatant)
T1 sequence (P12822 34-1310): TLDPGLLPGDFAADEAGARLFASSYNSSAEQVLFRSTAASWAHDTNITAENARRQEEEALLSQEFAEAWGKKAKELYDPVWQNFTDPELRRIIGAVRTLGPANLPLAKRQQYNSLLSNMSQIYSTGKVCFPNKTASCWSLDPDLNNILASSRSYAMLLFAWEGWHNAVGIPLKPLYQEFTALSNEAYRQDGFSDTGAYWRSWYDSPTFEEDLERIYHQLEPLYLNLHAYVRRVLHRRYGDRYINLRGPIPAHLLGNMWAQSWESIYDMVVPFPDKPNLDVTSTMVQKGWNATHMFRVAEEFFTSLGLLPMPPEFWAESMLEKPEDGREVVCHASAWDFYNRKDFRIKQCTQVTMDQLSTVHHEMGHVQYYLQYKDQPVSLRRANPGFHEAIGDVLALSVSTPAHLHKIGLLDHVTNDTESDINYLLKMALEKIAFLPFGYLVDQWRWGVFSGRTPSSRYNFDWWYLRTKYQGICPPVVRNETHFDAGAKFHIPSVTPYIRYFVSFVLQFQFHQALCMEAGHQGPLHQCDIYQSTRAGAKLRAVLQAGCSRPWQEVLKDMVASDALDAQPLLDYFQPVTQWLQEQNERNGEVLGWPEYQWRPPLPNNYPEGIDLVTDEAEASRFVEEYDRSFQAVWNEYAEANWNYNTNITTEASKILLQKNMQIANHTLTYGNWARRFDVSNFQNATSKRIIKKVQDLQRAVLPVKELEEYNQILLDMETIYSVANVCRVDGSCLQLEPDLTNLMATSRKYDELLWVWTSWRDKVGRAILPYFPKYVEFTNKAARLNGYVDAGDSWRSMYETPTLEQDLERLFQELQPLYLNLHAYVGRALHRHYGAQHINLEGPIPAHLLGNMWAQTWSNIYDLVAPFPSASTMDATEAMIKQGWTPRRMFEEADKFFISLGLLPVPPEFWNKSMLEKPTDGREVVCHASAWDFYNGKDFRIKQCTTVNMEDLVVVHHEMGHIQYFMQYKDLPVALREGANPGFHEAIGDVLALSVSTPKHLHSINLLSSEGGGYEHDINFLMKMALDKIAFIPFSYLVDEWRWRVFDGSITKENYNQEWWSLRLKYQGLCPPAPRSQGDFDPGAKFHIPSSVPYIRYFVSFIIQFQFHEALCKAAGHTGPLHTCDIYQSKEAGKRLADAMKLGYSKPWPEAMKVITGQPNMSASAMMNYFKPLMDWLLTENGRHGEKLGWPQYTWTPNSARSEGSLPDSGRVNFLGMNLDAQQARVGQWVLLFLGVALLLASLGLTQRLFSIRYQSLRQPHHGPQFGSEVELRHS
The experiment in a line: Spectrophotometric assay for angiotensin converting enzyme inhibitors. Particulars: crude ACE extract from rabbit lung; substrate benzoyl-glycyl-histidyl-leucine; 30 minutes at 37° C.; absorbance at 228 nm. The experiment is classed as biochemical. The protocol:
The activity of the novel compounds of this invention as hypotensive agents was established in two systems which measure their ability as angiotensin converting enzyme inhibitors; namely, a spectrophotometric assay of the compounds in vitro and by the measurement of the blood pressure lowering effect of the compounds in the aorta-coarcted renal hypertensive rats.
The in vitro activity for inhibition of the angiotensin converting enzyme (ACE) was measured by the method of Cushman, D. W. and Cheung, H. S., Biochem. Pharmacol. 20, 1637-1648 (1971), using benzoyl-glycyl-histidyl-leucine as the substrate. The reaction mixture consisted of 50 ml. of potassium phosphate (500 mM., […]), […]. of sodium chloride (2500 mM.), 25 ml. of substrate (50 mM), 30 to 50 ml. of the crude extract of ACE, 10 ml. of test compound (2.5 mM) or vehicle and a suitable amount of distilled water to give a total volume of 250 ml. This reaction mixture was incubated for 30 minutes at 37° C. and the reaction was then terminated by the addition of 250 ml. of 1 N hydrochloric acid. The hippuric acid was then extracted with 1.5 ml. of ethyl acetate by vortex mixing for 15 seconds. After centrifugation, 1 ml. of the ethyl acetate layer was pipetted into a new tube and evaporated to dryness. The extracted hippuric acid was then dissolved in 1 ml. of water and the amount of this acid was then measured by its absorbance at 228 nm. The ACE was extracted from rabbit lung acetane powder (Pel-Freez, Biol. Inc.) by blending 5 g. of the powder in 50 ml. of phosphate buffer (50 mM, pH 8.3) and then centrifuging at 40,000 g for 30 minutes. The supernatant was then kept at 5° C. and used as the enzyme source. The activity of the ACE inhibitor was calculated as the percent inhibition of ACE activity compared to the control value of that particular assay. A full dose-response inhibitory curve is then performed to determine the IC50 value which may be defined as the molar concentration of a compound that will inhibit the ACE activity by 50%.
For orientation: IC50 means the concentration needed to halve the response being measured. A high value points to a need for much substance. Turning to `CC(=O)S[C@H](C(=O)c1ccccc1)[C@@H](C)C(=O)N1CCC[C@H]1C(=O)O` [[S-(R*,R*)]-1-(3-acetylthio-3-benzoyl-2-methylpropionyl)-L-proline], half-maximal inhibition (IC50) was put at 78 nM.

Take `CC(=O)SC(CC(=O)N1CCC[C@H]1C(=O)O)C(=O)c1cccc(C(F)(F)F)c1` (stereo partly drawn) [1-[3-Acetylthio-3-(3-trifluoromethylbenzoyl)propionyl]-L-proline]: the IC50 worked out at 1070 nM.

As for `CC(=O)S[C@H](C(=O)c1cccc(F)c1)[C@@H](C)C(=O)N1CCC[C@H]1C(=O)O` [[S-(R*,R*)]-1-[3-acetylthio-3-(3-fluorobenzoyl)-2-methylpropionyl]-L-proline], the IC50 was found to be 233 nM.

On to `O=C(O)CSC(CC(=O)c1ccccc1)C(=O)N1CCC[C@H]1C(=O)O` (stereo partly drawn) [1-[3-Benzoyl-2-(carboxymethylthio)propionyl]-L-proline], for which the midpoint of inhibition, the IC50, lay at 31600 nM.

As for `CC(=O)SC(CC(=O)N1CCC[C@H]1C(=O)O)C(=O)c1ccc(Br)cc1` (stereo partly drawn) [1-[3-Acetylthio-3-(4-bromobenzoyl)propionyl]-L-proline], the IC50 amounted to 131 nM.

On to `CC(=O)SC(CC(=O)N1CCC[C@H]1C(=O)O)C(=O)c1ccccc1` (stereo partly drawn) [1-(3-Acetylthio-3-benzoylpropionyl)-L-proline], for which the IC50 turned out to be 455 nM.

For `CC(=O)SC(C(=O)c1cccc(F)c1)C(C)C(=O)N1CCC[C@H]1C(=O)O` (stereo partly drawn) [1-[3-Acetylthio-3-(3-fluorobenzoyl)-2-methylpropionyl]-L-proline], the IC50 is 61.7 nM.

`O=C(c1ccc(Br)cc1)C(S)CC(=O)N1CCC[C@H]1C(=O)O` (stereo partly drawn) [1-[3-(4-Bromobenzoyl)-3-thiopropionyl]-L-proline] showed an IC50 of 352 nM.

For `COc1ccc(C(=O)C(CC(=O)N2CCC[C@H]2C(=O)O)SC(C)=O)cc1F` (stereo partly drawn) [1-[3-Acetylthio-3-(3-fluoro-4-methoxybenzoyl)propionyl]-L-proline], the midpoint of inhibition, the IC50, lay at 600 nM.

Compound `CC(=O)S[C@@H](C(=O)c1ccc(Br)cc1)[C@@H](C)C(=O)N1CCC[C@H]1C(=O)O` [[S-(R*,S*)]-1-[3-acetylthio-3-(4-bromobenzoyl)-2-methylpropionyl]-L-proline] displayed an IC50 of 98.5 nM.

`O=C(c1ccccc1)c1cnc(SC(CC(=O)N2CCC[C@H]2C(=O)O)C(=O)c2ccc(Cl)cc2)nc1` (stereo partly drawn) [1-[3-(5-Benzoyl-2-pyrimidinylthio)-3-(4-chlorobenzoyl)propionyl]-L-proline]: half-maximal inhibition (IC50) required 2780 nM.

In turn, `CC(=O)SC(C(=O)c1ccc(Cl)cc1)C(C)C(=O)N1CCC[C@H]1C(=O)O` (stereo partly drawn) [1-[3-Acetylthio-3-(4-chlorobenzoyl)-2-methylpropionyl]-L-proline] came in with an IC50 of 335 nM.

Compound `CC(=O)SC(CC(=O)N1CCC[C@H]1C(=O)O)C(=O)c1ccc(C(C)(C)C)cc1` (stereo partly drawn) [1-[3-Acetylthio-3-(4-tert-butylbenzoyl)propionyl]-L-proline] gave an IC50 of 183 nM.

In turn, `CC(=O)SC(CC(=O)N1CCC[C@H]1C(=O)O)C(=O)c1ccc2ccccc2c1` (stereo partly drawn) [1-[3-Acetylthio-3-(2-naphthoyl)propionyl]-L-proline] registered an IC50 of 130 nM.

`CC(=O)SC(CC(=O)N1CCC[C@H]1C(=O)O)C(=O)c1ccc(F)cc1` (stereo partly drawn) [1-[3-Acetylthio-3-(4-fluorobenzoyl)propionyl]-L-proline]: the IC50 worked out at 473 nM.

In the case of `CC(=O)S[C@H](C(=O)c1cccc(F)c1)[C@H](C)C(=O)N1CCC[C@H]1C(=O)O` [[R-(R*,S*)]-1-[3-acetylthio-3-(3-fluorobenzoyl)-2-methylpropionyl]-L-proline], half-maximal inhibition (IC50) required 280000 nM.

For the compound `O=C(SC(CC(=O)N1CCC[C@H]1C(=O)O)C(=O)c1ccc(Br)cc1)c1ccccc1` (stereo partly drawn) [1-[3-(4-Bromobenzoyl)-3-benzoylthiopropionyl]-L-proline], half-maximal inhibition (IC50) required 115 nM.

For the compound `CC(=O)S[C@@H](C(=O)c1ccccc1)[C@@H](C)C(=O)N1CCC[C@H]1C(=O)O` [[S-(R*,S*)]-1-(3-Acetylthio-3-benzoyl-2-methylpropionyl)-L-proline], the IC50 turned out to be 51.5 nM.

On to `CC(=O)SC(CC(=O)N1CCC[C@H]1C(=O)O)C(=O)c1ccc2c(c1)CCC2` (stereo partly drawn) [1-[3-acetylthio-3-(5-indanylcarbonyl)propionyl]-L-proline], for which the IC50 was 218 nM.

`O=C(SC(CC(=O)N1CCC[C@H]1C(=O)O)C(=O)c1ccccc1)c1ccccc1` (stereo partly drawn) [1-(3-Benzoylthio-3-benzoylpropionyl)-L-proline] registered an IC50 of 513 nM.

Consider `O=C(c1cnc(SC(CC(=O)N2CCC[C@H]2C(=O)O)C(=O)c2ccc(Cl)cc2)nc1)c1cccs1` (stereo partly drawn) [1-[3-(4-Chlorobenzoyl)-3-[5-(2-thenoyl)-2-pyrimidinylthio]propionyl]-L-proline], for which the midpoint of inhibition, the IC50, lay at 5130 nM.

In turn, `CC(=O)S[C@H](C(=O)c1ccc(Br)cc1)[C@@H](C)C(=O)N1CCC[C@H]1C(=O)O` [[S-(R*,R*)]-1-[3-acetylthio-3-(4-bromobenzoyl)-2-methylpropionyl]-L-proline] showed an IC50 of 133 nM.

Compound `O=C(SC(CC(=O)N1CCC[C@H]1C(=O)O)C(=O)c1ccc(F)cc1)c1ccccc1` (stereo partly drawn) [1-[3-Benzoylthio-3-(4-fluorobenzoyl)propionyl]-L-proline] registered an IC50 of 353 nM.

The compound `CC(=O)S[C@@H](C(=O)c1cccc(F)c1)[C@H](C)C(=O)N1CCC[C@H]1C(=O)O` [[R-(R*,R*)]-1-[3-acetylthio-3-(3-fluorobenzoyl)-2-methylpropionyl]-L-proline] had an IC50 of 16000 nM.

Regarding `CC(=O)SC(CC(=O)c1ccccc1)C(=O)N1CCC[C@H]1C(=O)O` (stereo partly drawn) [1-(2-Acetylthio-3-benzoylpropionyl)-L-proline], it took 4230 nM to reach half-maximal inhibition (IC50).

The compound `O=C(SC(CC(=O)N1CCC[C@H]1C(=O)O)C(=O)c1cccc(F)c1)c1ccccc1` (stereo partly drawn) [1-[3-Benzoylthio-3-(3-fluorobenzoyl)propionyl]-L-proline] registered an IC50 of 1760 nM.

The compound `CC(=O)SC(CC(=O)N1CCC[C@H]1C(=O)O)C(=O)c1cccc(F)c1` (stereo partly drawn) [1-[3-Acetylthio-3-(3-fluorobenzoyl)propionyl]-L-proline] registered an IC50 of 31.6 nM.

`CC(=O)SC(CC(=O)N1CCC[C@H]1C(=O)O)C(=O)c1ccc(-c2ccccc2)cc1` (stereo partly drawn) [1-[3-Acetylthio-3-(4-biphenylylcarbonyl)propionyl]-L-proline]: the IC50 came out at 86 nM.

`CC(=O)S[C@@H](C(=O)c1cccc(F)c1)[C@@H](C)C(=O)N1CCC[C@H]1C(=O)O` [[S-(R*,S*)]-1-[3-acetylthio-3-(3-fluorobenzoyl)-2-methylpropionyl]-L-proline] registered an IC50 of 37 nM.

For `CC(=O)SC(CC(=O)N1CCC[C@H]1C(=O)O)C(=O)c1ccc(Cl)cc1` (stereo partly drawn) [1-[3-Acetylthio-3-(4-chlorobenzoyl)propionyl]-L-proline], half-maximal inhibition (IC50) required 82.6 nM.

For `CC(=O)SC(C(=O)c1ccccc1)C(C)C(=O)N1CCC[C@H]1C(=O)O` (stereo partly drawn) [1-(3-Acetylthio-3-benzoyl-2-methylpropionyl)-L-proline], the IC50 stood at 147 nM.
